Results from PMC11784013, “Potassium molybdate blocks APN-dependent coronavirus entry by degrading receptor via PIK3C3-mediated autophagy” (Journal of Virology, 2024).

Tests used:
[1] = tested on: PRCV; assay: PRCV infection of porcine intestinal organoids (monolayer, apical-out); assay type: cell-based, porcine respiratory coronavirus; details: monolayer 24 h; apical-out 1 MOI, 48 h; IFA, RT-qPCR, TCID50, western blot
Experimental: Fig 2 PM restricts TGEV and PRCV infection in porcine intestinal organoids. (A) Intestinal organoids cultured in 96-well plate were incubated with different concentrations of PM for 24 h, which was tested by Cell Counting Kit 8. (B and C) The intestinal organoids monolayer was treated with indicated PM and infected with TGEV Miller (0.1 MOI) for 24 h, which was measured by IFA (B), scale bar: 50 µm, RT-qPCR, TCID50, and western blot (C). (D) Apical-out intestinal organoids were treated with indicated PM and infected TGEV Miller (1 MOI) for 48 h, which was determined by RT-qPCR, TCID50, and western blot. (E and F) The intestinal organoids monolayer was treated with different concentrations of PM and infected with PRCV for 24 h, which was determined by IFA (E), scale bar: 50 µm, RT-qPCR, TCID50, and western blot (F). (G) Apical-out intestinal organoids were treated with indicated PM and infected PRCV (1 MOI) for 48 h, which was detected by RT-qPCR, TCID50, and western blot. Results are presented as mean ± SD of data from three independent experiments. **, P ≤ 0.01; ***, P ≤ 0.001.
Porcine 3D ileum organoids coated with Matrigel for 1 week were dissociated by incubation in 5 mM cold EDTA buffer on a rotating platform for 1 h at 4°C. […]

[2] = tested on: PIK3C3-BECN1-ATG14 complex; assay: Co-IP and confocal analysis of PtdIns3K complex assembly in ST cells; assay type: cell-based, porcine; details: 36 h
Experimental: Fig 8 PM promotes PIK3C3-BECN1-ATG14 complex assembly by enhancing PIK3C3 Ser249 phosphorylation. (A) ST cells were transfected with pCMV-Myc-PIK3C3 and pCDNA3.1-Flag-BECN1 for 12 h and then treated with PM (10 mM) for 36 h. The Co-IP was carried out by Flag or Myc Ab, followed by western blot analysis. (B) ST cells were transfected with pCDNA3.1-Flag-BECN 1 and pCDNA3.4-His-ATG14 for 12 h and treated with PM (10 mM) for 36 h. The Co-IP was performed with Flag or […] Ab, followed by western blot detection. (C–E) ST cells were transfected with pCMV-Myc-PIK3C3, pCDNA3.1-Flag-BECN1, and pCDNA3.4-His-ATG14 for 12 h, and PM (10 mM) was added to the cells for 36 h. Then Co-IP was performed with a Myc, Flag, and His Ab individually, and all IPs, input, and phosphorylation of PIK3C3 (Ser249), BECN1 (Ser14), and ATG14 (Ser29) were detected by western blot. (F) ST cells were transfected with pCMV-Myc-PIK3C3, pCDNA3.1-Flag-BECN1, and pCDNA3.4-His-ATG14 for 12 h, and PM (10 mM) was added to the cells for 36 h, which detected by IFA, scale bar: 20 µm. (G) Quantification of PIK3C3-BECN1-ATG14 complex (merged signal) from F using Image J software. (H) ST cells were transfected with pCMV-Myc-PIK3C3 or pCMV-Myc-PIK3C3 mutant, pCDNA3.1-Flag-BECN1 and pCDNA3.4-His-ATG14 for 12 h and then treated with PM (10 mM) for 36 h. Then Co-IP was performed with a Myc, Flag, and His Ab individually, and all IPs, input, and phosphorylation of PIK3C3 (Ser249), BECN1 (Ser14), and ATG14 (Ser29) were detected by western blot. Results are presented as mean ± SD of data from three independent experiments. ***, P ≤ 0.001.
Cotransfected cells were washed with cold PBS twice and lysed with NP40 lysis buffer (Beyotime, China, P0013F) supplemented with 1 mM PMSF (Beyotime, China, ST506) and phosphatase inhibitors (Beyotime, China, P1096). […] Immunoprecipitated proteins were detected by western blotting. […]

## [K+].[K+].[O]=[Mo](=[O])([O-])[O-] [PM, potassium molybdate]
[1]
  PRCV infection in organoid monolayer and apical-out organoids: the same phenotypes were found
[2]; ST cells co-transfected with Myc-PIK3C3, Flag-BECN1, His-ATG14, PM 10 mM
  PIK3C3 Ser249 phosphorylation: upregulation of PIK3C3 Ser249 phosphorylation
[2]; ST cells, PM 10 mM
  colocalization of Myc-PIK3C3, Flag-BECN1 and His-ATG14 (confocal microscopy): enhanced the colocalization
  interaction between Myc-PIK3C3 and Flag-BECN1 (Co-IP): increased after PM treatment
